Experimental data from patent US9326507B2, “Pheromone composition for treating Varroa mite infestation” (Universitaet Hohenheim, priority 2013, dated 2016).

The compounds below were run on male Varroa mites (assay: mating bioassay: male response to a female deutochrysalis dummy). Conditions: pure substances tested at 1, 10, 100 and 1000 ng.
Type: in vivo, Varroa destructor
Method: Male and female Varroa mites were obtained from brood combs of heavily infested Apis mellifera colonies at the Apicultural State Institute, University of Hohenheim in Germany. Sexually mature males and freshly molted adult females as well as female deutochrysalis were collected from brood cells 8 to 9 days after capping. Female deutochrysales and freshly molted adult female mites were transferred into queen cell cups (Nicot System®, Karl Jenter, Metzingen) and kept at 28-30° C. for a maximum of 2 hours in order to prevent a decrease in vitality and mobility.
The responses of male Varroa mites to extracts, fractions, and pure substances were measured by using the “mating bioassay”: total extracts, fractions and pure substances were applied to a piece of filter paper (size: 1.5 mm×15 mm) with a 10 μl Hamilton syringe. The filter paper was folded in the middle and placed at the edge of the plastic cell cups (Nicot System®, Karl Jenter, Metzingen, 9 mm inner diameter) that served as a test arena. A living female deutochrysalis was placed at the bottom of the cell cup at 3.5 mm distance to the filter paper. […] After three tests, the dummies were replaced by new ones. The male responses towards the deutochrysalis were categorized as follows: (1) movement towards/around the deutochrysalis and palpating it, (2) mounting the dorsum of the deutochrysalis and (3) copulation attempts on the venter of the deutochrysalis. The duration of each of these behaviours was recorded over a period of 5 minutes using the Observer 2.0 software (Noldus Information Technology). All tests were performed at temperatures of 33-34° C. at the bottom of the test arena.
The extract was applied to the filter paper in doses of 2 female equivalents; in control tests the filter paper was treated with ether only. Pentane and ether fractions were tested in concentrations of 5 female equivalents in the same way. The higher concentration was applied in order to equalize possible losses of active substances during the column fractionation. Single substances that were identified from the active fraction (see 2.6) were purchased (Sigma Aldrich, GC grade), dissolved in diethyl ether and were tested in doses of 1 ng, 10 ng, 100 ng and 1000 ng.
Behavioural data were analyzed with the SPSS 15.0 statistics software. One Way ANOVA was performed to evaluate the male response toward the female deutochrysalis while being exposed to total extracts, fractions or pure substances. Differences between groups with p<0.05 were considered statistically significant.

| SMILES | copulatory responses / male mating behaviour to pure substances | dosage of maximum copulatory responses | dosage of lowest copulatory responses |
| --- | --- | --- | --- |
| CCCCCCCC/C=C\CCCCCCCC(=O)OCC [ethyl oleate] | the same trend was evident, albeit without significant differences |  |  |
| CCCCCCCCCCCCCCCC(=O)OCC [ethyl palmitate] |  | 10 ng |  |
| CCCCCCCC/C=C\CCCCCCCC(=O)O [oleic acid] | highest copulatory responses | 10 ng | 1000 ng |
| CCCCCCCCCCCCCCCC(=O)O [palmitic acid] |  | 10 ng |  |
| CCCCCCCCCCCCCCCCCC(=O)O [stearic acid] | lower compared to the other compounds | 1 ng |  |
| CCCCCCCCCCCCCCCCCC(=O)OCC [ethyl stearate] |  | 10 ng |  |
